The data set is described as follows: Hydrolysis of modified indigo compound to indigo. As to conditions: under hydrolyzing conditions. In kind it is physicochemical. The procedure: In some embodiments, the substrate is contacted with a hydrolyzing agent, the hydrolyzing agent being capable of reacting with the modified indigo compound contained within the substrate to convert the modified indigo compound into indigo.
The hydrolysis is performed using any chemical compound or condition that is capable of converting the dye compound to indigo. In some embodiments, the hydrolysis is performed in aqueous compositions which contain a hydrolyzing agent. In other embodiments, the hydrolyzing agent may be selected by one skilled in the art and may include, without limitation, a base, heat, steam, or a combination thereof.

For `O=C1/C(=C2/C(=O)c3ccccc3N2C(=O)c2ccncc2)N(C(=O)c2ccncc2)c2ccccc21` [Compound 37], the “conversion to indigo by hydrolysis” value was “hydrolyzes to indigo”.

Values taken from US20210189643A1 (VF Jeanswear LP, priority 2017, published 2021).
